Results as given in ChEMBL document CHEMBL1201862, “PubChem BioAssay data set” (2004).
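Method: 48-hour compound exposure of cells in 96-well plates, five concentrations, linear interpolation of endpoints. At the GI50, growth is halved.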 Active and inactive are the calls of the source. Rule as the data show it: active = GI50 up to about 1.1 µM and inactive = higher.

Assays:
Test in all cases: inhibition of tumour cell growth, NCI panel, 48 h
ACHN = system: ACHN
BT-549 = system: BT-549
DU-145 = system: DU-145
HCT-116 = system: HCT-116
HCT-15 = system: HCT-15
HOP-92 = system: HOP-92
HT-29 = system: HT-29
MDA-MB-435 = system: MDA-MB-435
NCI/ADR-RES = system: NCI/ADR-RES
OVCAR-8 = system: OVCAR-8
RPMI-8226 = system: RPMI-8226
RXF 393 = system: RXF 393
SK-MEL-28 = system: SK-MEL-28
SK-OV-3 = system: SK-OV-3
SN12C = system: SN12C
SNB-19 = system: SNB-19
UO-31 = system: UO-31
NCI-H460 = system: NCI-H460
SF-539 = system: SF-539

SMILES | GI50 (ACHN) | GI50 (BT-549) | GI50 (DU-145) | GI50 (HCT-116) | GI50 (HCT-15) [µM] | GI50 (HOP-92) | GI50 (HT-29) | GI50 (MDA-MB-435) | GI50 (NCI/ADR-RES) | GI50 (OVCAR-8) | GI50 (RPMI-8226) | GI50 (RXF 393) | GI50 (SK-MEL-28) | GI50 (SK-OV-3) | GI50 (SN12C) | GI50 (SNB-19) | GI50 (UO-31) | GI50 (NCI-H460) | GI50 (SF-539)
N=C(c1ccc(-c2cn3cc(C(=N)N4CCCC4)ccc3n2)cc1)N1CCCC1 | > 100 µM (inactive) | > 100 µM (inactive) | > 100 µM (inactive) | > 100 µM (inactive) | > 100 | 3.86 µM (inactive) | > 100 µM (inactive) | > 100 µM (inactive) | > 100 µM (inactive) | > 100 µM (inactive) | > 100 µM (inactive) | > 100 µM (inactive) | > 100 µM (inactive) | > 100 µM (inactive) | > 100 µM (inactive) | > 100 µM (inactive) | > 100 µM (inactive) | – | –
S=C(Nc1ccccc1)Nc1ccccc1SC(/C=C/NNC1=NN=C(c2ccccc2)C(c2ccccc2)N1)c1ccccc1 (centres undefined) | 69.7 µM (inactive) | – | – | > 100 µM (inactive) | > 100 | 3.97 µM (inactive) | > 100 µM (inactive) | – | – | > 100 µM (inactive) | 59 µM (inactive) | 8.02 µM (inactive) | > 100 µM (inactive) | > 100 µM (inactive) | > 100 µM (inactive) | > 100 µM (inactive) | – | > 100 µM (inactive) | 83.9 µM (inactive)
O=C1NC2c3c(I)sc(I)c3/C(=N\O)C2O1 (centres undefined) | 17 µM (inactive) | – | 53.7 µM (inactive) | 25.1 µM (inactive) | 24.4 | 19.2 µM (inactive) | 17.9 µM (inactive) | 26.5 µM (inactive) | 20.4 µM (inactive) | 18.4 µM (inactive) | 67.9 µM (inactive) | 12.7 µM (inactive) | 41.8 µM (inactive) | 34.5 µM (inactive) | 30.8 µM (inactive) | 21.7 µM (inactive) | 15.7 µM (inactive) | 31.5 µM (inactive) | 14.2 µM (inactive)
Oc1c(Cl)c(Cl)c(O)c2c1CCCC2 | 1.75 µM (inactive) | 14.8 µM (inactive) | – | 1.51 µM (inactive) | 12.9 | 1.85 µM (inactive) | 19.1 µM (inactive) | 16.4 µM (inactive) | 15.5 µM (inactive) | 18.7 µM (inactive) | 2.72 µM (inactive) | 10.6 µM (inactive) | 13.6 µM (inactive) | 14.2 µM (inactive) | 14.7 µM (inactive) | 16 µM (inactive) | 2.36 µM (inactive) | 15.1 µM (inactive) | 8.69 µM (inactive)
O=C1Nc2ccc(S(=O)(=O)NCCO)cc2/C1=C1/Nc2ccccc2C1=O | 6.97 µM (inactive) | 3.98 µM (inactive) | 8 µM (inactive) | 3.13 µM (inactive) | 13.3 | 13.8 µM (inactive) | > 100 µM (inactive) | > 100 µM (inactive) | > 100 µM (inactive) | 11 µM (inactive) | 92.5 µM (inactive) | 4.36 µM (inactive) | > 100 µM (inactive) | 5.42 µM (inactive) | 67.5 µM (inactive) | 8.81 µM (inactive) | 52.5 µM (inactive) | 30.3 µM (inactive) | –
CNCCCn1c2ccccc2c2c3c(c(-c4ccsc4)cc21)C(=O)NC3=O | < 0.0192 µM (active) | 2.1 µM (inactive) | 0.179 µM (active) | 1.4 µM (inactive) | 1.51 | – | 0.824 µM (active) | 1.12 µM (active) | 0.71 µM (active) | 0.281 µM (active) | – | 0.0112 µM (active) | 1.78 µM (inactive) | 1.19 µM (inactive) | 1.29 µM (inactive) | 1.6 µM (inactive) | 0.286 µM (active) | 1.35 µM (inactive) | 0.0281 µM (active)
CCOC(=O)/C=C1\c2ccccc2C(=O)N1CC(=O)OCC | > 100 µM (inactive) | > 100 µM (inactive) | > 100 µM (inactive) | > 100 µM (inactive) | > 100 | 39.9 µM (inactive) | – | > 100 µM (inactive) | 50 µM (inactive) | > 100 µM (inactive) | > 100 µM (inactive) | > 100 µM (inactive) | > 100 µM (inactive) | > 100 µM (inactive) | > 100 µM (inactive) | > 100 µM (inactive) | > 100 µM (inactive) | – | –
O=C1C(c2c(O)[nH]c3ccccc23)=Nc2ccc(Br)cc21 | 14.5 µM (inactive) | 28.2 µM (inactive) | 8.11 µM (inactive) | 24.3 µM (inactive) | 76.2 | 17.6 µM (inactive) | 23.9 µM (inactive) | 61.8 µM (inactive) | 37.4 µM (inactive) | 15.1 µM (inactive) | 75.7 µM (inactive) | 12.9 µM (inactive) | > 100 µM (inactive) | 18.4 µM (inactive) | 77.1 µM (inactive) | 22 µM (inactive) | 24.6 µM (inactive) | 70 µM (inactive) | –
CCN(CCCl)c1cccc(NC(=O)c2ccc(C(=O)Nc3cccc(CN(C)C)c3)cc2)c1 | 0.0354 µM (active) | – | 0.0432 µM (active) | 0.0611 µM (active) | 0.605 | 0.144 µM (active) | 0.0597 µM (active) | 0.0243 µM (active) | 2.76 µM (inactive) | 0.183 µM (active) | 0.267 µM (active) | < 0.01 µM (active) | 0.165 µM (active) | 0.298 µM (active) | 0.335 µM (active) | 0.0497 µM (active) | 0.475 µM (active) | 0.0537 µM (active) | 0.244 µM (active)
CNC(=O)Nn1c(SC)nc2ccccc21 | > 100 µM (inactive) | > 100 µM (inactive) | > 100 µM (inactive) | > 100 µM (inactive) | > 100 | > 100 µM (inactive) | > 100 µM (inactive) | > 100 µM (inactive) | > 100 µM (inactive) | > 100 µM (inactive) | > 100 µM (inactive) | > 100 µM (inactive) | > 100 µM (inactive) | > 100 µM (inactive) | > 100 µM (inactive) | > 100 µM (inactive) | > 100 µM (inactive) | > 100 µM (inactive) | –
CN(C)CC(CN(C)C)c1ccccn1 | > 100 µM (inactive) | > 100 µM (inactive) | – | > 100 µM (inactive) | > 100 | > 100 µM (inactive) | > 100 µM (inactive) | > 100 µM (inactive) | > 100 µM (inactive) | > 100 µM (inactive) | > 100 µM (inactive) | > 100 µM (inactive) | > 100 µM (inactive) | > 100 µM (inactive) | > 100 µM (inactive) | > 100 µM (inactive) | > 100 µM (inactive) | > 100 µM (inactive) | > 100 µM (inactive)
O=C1Cc2cc3ccccc3nc2-c2ccccc2N1 | 54.7 µM (inactive) | 92.9 µM (inactive) | 79.6 µM (inactive) | 23.9 µM (inactive) | 96.6 | 41.7 µM (inactive) | 55.1 µM (inactive) | > 100 µM (inactive) | 31.6 µM (inactive) | 35.3 µM (inactive) | – | 70.5 µM (inactive) | > 100 µM (inactive) | 38 µM (inactive) | > 100 µM (inactive) | 49.2 µM (inactive) | 35.4 µM (inactive) | 63.7 µM (inactive) | 69.7 µM (inactive)
Cc1ccc(-c2cc(-c3c(C)nn(C)c(=O)c3N)n[nH]2)cc1 | > 100 µM (inactive) | – | > 100 µM (inactive) | > 100 µM (inactive) | > 100 | > 100 µM (inactive) | > 100 µM (inactive) | > 100 µM (inactive) | > 100 µM (inactive) | > 100 µM (inactive) | 99.1 µM (inactive) | > 100 µM (inactive) | > 100 µM (inactive) | > 100 µM (inactive) | > 100 µM (inactive) | > 100 µM (inactive) | – | > 100 µM (inactive) | > 100 µM (inactive)
Cc1ccc(/C=C2\Cc3cc(C)c(C)cc3C2=O)c(C(=O)O)c1 | 46.3 µM (inactive) | 16.3 µM (inactive) | 26.7 µM (inactive) | 32.1 µM (inactive) | 27.5 | – | 33.3 µM (inactive) | – | – | 43.5 µM (inactive) | 40.4 µM (inactive) | 28.2 µM (inactive) | 52.5 µM (inactive) | – | 30.5 µM (inactive) | 30.9 µM (inactive) | 29 µM (inactive) | 33.7 µM (inactive) | 13.7 µM (inactive)
COCC1OC(S(=O)(=O)c2ccccc2)C(O)C(OC)C1OC (centres undefined) | > 100 µM (inactive) | > 100 µM (inactive) | > 100 µM (inactive) | > 100 µM (inactive) | > 100 | – | > 100 µM (inactive) | > 100 µM (inactive) | > 100 µM (inactive) | > 100 µM (inactive) | – | > 100 µM (inactive) | > 100 µM (inactive) | > 100 µM (inactive) | > 100 µM (inactive) | > 100 µM (inactive) | > 100 µM (inactive) | > 100 µM (inactive) | > 100 µM (inactive)
CCN(CC)c1nc(N(C)C)c2ccc(OC)cc2n1 | 12.5 µM (inactive) | 22.8 µM (inactive) | – | 4.35 µM (inactive) | 12.4 | 18.5 µM (inactive) | 4.12 µM (inactive) | 10.5 µM (inactive) | 11.9 µM (inactive) | 15.2 µM (inactive) | 10.1 µM (inactive) | 13.6 µM (inactive) | 12.5 µM (inactive) | 13.7 µM (inactive) | 15 µM (inactive) | 20 µM (inactive) | – | 10.3 µM (inactive) | 16.7 µM (inactive)
